Data taken from patent US20110070232A1, “Combination Therapy with an Antitumor Alkaloid” (Pharma Mar, S.A., priority 2008, published 2011).
Read-outs that look alike come from different tables or passages of the source.

Columns and labels:
Hs746T tumors = format: in vivo, mice; conditions: mg/kg/day: PM00104 0.90 IV, cisplatin 5 IP, paclitaxel 10 IP
From the text: Female athymic nude mice (Harlan Sprague Dawley, Madison, Wis.) were utilized for all experiments. Animals were housed in ventilated rack caging with food and water ad libitum. The mice were acclimated for at least 5 days prior to tumor implantation with a tumor cell suspension. The Vehicle Control group contained 11 mice, groups 2-4 contained 7 mice and the rest of groups contained 8 mice.
The tumor model used in these studies was Hs746T cell line, which was obtained from the ATCC (Manassas, Va.).
Hs746T cells were grown in DMEM supplemented with 10% FBS, 1.5 g/L sodium bicarbonate, 4.5 g/L glucose, and 4 mM L-glutamine. Each animal was implanted SC on the right flank, using a trochar, with 5×10^6 Hs746T cells, from in vitro passage 18, in a 0.2 mL suspension of 50% Matrigel and 50% serum free medium, without antibiotics. Bacterial cultures were performed on aliquots of the cells prepared for implantation.
Treatments were initiated on DPI 16.
(§1) Tumor size measurements were recorded twice weekly from the treatment initiation until the termination of the study.
(§2) Mean, standard deviation and standard error of the mean were determined for tumor volume for all animal groups at all assessments. Student's t test was performed on tumor volumes at each measurement day, including at the end of the study, to determine whether there were any statistically significant differences between combination treatment groups and single monotherapy treatment groups.

MIA PaCa-2 tumors = format: in vivo, mice; conditions: mg/kg/day: PM00104 0.90 IV
From the text: Female athymic nude mice (Harlan Sprague Dawley, Madison, Wis.) were utilized for all experiments. Animals were housed in ventilated rack caging with food and water ad libitum. The mice were acclimated for at least 5 days prior to tumor implantation with a tumor cell suspension.
The tumor model used in these studies was MIAPaCA-2 cell line, which was obtained from the ATCC (Manassas, Va.).
Each animal was implanted subcutaneously (SC) on the right flank, using a trochar, with 1×10^7 MIAPaCA-2 cells, from in vitro passage 18, in a 0.2 mL suspension of 50% Matrigel/50% serum free medium, without antibiotics. Matrigel is a biological extracellular matrix that is liquid at 4° C. and solid at 37° C., and it promotes tumor growth by maintaining the cells in close association in a localized area. Bacterial cultures were performed on aliquots of the cells prepared for implantation.
Tumor measurements were determined by using Vernier calipers. The formula to calculate volume for a prolate ellipsoid was used to estimate tumor volume (mm^3) from 2-dimensional tumor measurements: Tumor volume (mm^3)=[L×W^2]÷2, where L is the length and it is the longest diameter in mm, and W is the width and it is the shortest diameter in mm of a tumor. Assuming unit density, volume was converted to weight (i.e., 1 mm^3=1 mg).
Treatments were initiated on DPI (Day Post Implantation) 13. In these experiments, the combination therapy groups were treated by co-administering the two drugs at the same time, with no attempt to sequence the treatments.
as §1, §2
The definition and criteria for the evaluation of potentiation and the degree of additivity for the combination therapy were as follows:
Additivity was determined as discussed above by comparing the % of tumor growth inhibition of the monotherapy groups versus those of the combination group as follows: • 1. Determine the % of tumor growth inhibition, as 100-% T/C, for each of the drugs administered as monotherapy at the doses used in the combinations. % T/C was obtained by comparing the mean tumor weight in the treatment groups (T) to the mean tumor weight in the control group (C) (T/C×100%). • 2. The two scores were added together to determine the “expected response” if each agent produced the same response as it did when administered as monotherapy. • 3. This “expected response” was subtracted from the % of tumor growth inhibition determined for the combination therapy group: • a. […] If the resulting number was close to zero, the effect of combining the two drugs was determined as additive. • c.

[1] = system: UM-UC-3 human bladder carcinoma cell line; assay: IC50 determination, MTS assay, 72 h (Example 2); format: cell-based
Method: (§3) The following agents were evaluated in combination with PM00104: gemcitabine (Gemzar®) and cisplatin. The human bladder carcinoma cell lines selected for this assay were the following: 5637 and UM-UC-3 cell lines. 5637 cell line was grown in RPMI 1640 medium supplemented with 10% FBS, 1.5 g/L sodium bicarbonate, 4.5 g/L glucose, 10 mM HEPES, 1 mM sodium pyruvate, and 2 mM L-glutamine. UM-UC-3 cell line was grown in MEM Eagle's medium supplemented with 10% FBS and 2 mM L-glutamine.
(§4) a. […] It was used the same methodology as those disclosed in Example 1.
(§5) IC50 values were calculated from an average of three to four assays for each of the test agents.

[2] = system: 5637 human bladder carcinoma cell line; assay: IC50 determination, MTS assay, 72 h (Example 2); format: cell-based; conditions: 72 hours of drug exposure
Method: as §3, §4, §5

[3] = day 13, gemcitabine 140 IP, erlotinib 100 PO
[4] = day 15, gemcitabine 140 IP, erlotinib 100 PO
[5] = day 19, gemcitabine 140 IP, erlotinib 100 PO
[6] = day 22, gemcitabine 140 IP, erlotinib 100 PO
[7] = day 27, gemcitabine 140 IP, erlotinib 100 PO
[8] = day 29, gemcitabine 140 IP, erlotinib 100 PO
[9] = day 33, gemcitabine 140 IP, erlotinib 100 PO
[10] = day 36, gemcitabine 140 IP, erlotinib 100 PO
[11] = Homo sapiens, UMUC3, 72 hours of drug exposure, read-out: IC50

CC(=O)O[C@H]1C(=O)[C@@]2(C)[C@H]([C@H](OC(=O)c3ccccc3)[C@]3(O)C[C@H](OC(=O)[C@H](O)[C@@H](NC(=O)c4ccccc4)c4ccccc4)C(C)=C1C3(C)C)[C@]1(OC(C)=O)CO[C@@H]1C[C@@H]2O [paclitaxel]
% Inhibition (Hs746T tumors; day 16): 3.6%
% T/C on day (Hs746T tumors; day 16): 96.4%
% Inhibition (Hs746T tumors; day 20): 36.7%
% T/C on day (Hs746T tumors; day 20): 63.3%
% Inhibition (Hs746T tumors; day 23): 52.3%
% T/C on day (Hs746T tumors; day 23): 47.7%
% Inhibition (Hs746T tumors; day 26): 65.3%
% Inhibition (Hs746T tumors; day 29): 78.6%
% T/C on day (Hs746T tumors; day 29): 21.4%
% Inhibition (Hs746T tumors; day 33): 76.8%
% T/C on day (Hs746T tumors; day 33): 23.2%
% Inhibition (Hs746T tumors; day 36): 69.9%
% T/C on day (Hs746T tumors; day 36): 30.1%

COc1c(C)cc2c(c1O)[C@@H]1[C@@H]3Cc4c(OC(C)=O)c(C)c5c(c4[C@H](CNC(=O)/C=C/c4cccc(C(F)(F)F)c4)N3[C@@H](O)[C@H](C2)N1C)OCO5 [PM00104]
% Inhibition (Hs746T tumors; day 16): 2.0%
% T/C on day (Hs746T tumors; day 16): 98.0%
% Inhibition (Hs746T tumors; day 20): 34.4%
% T/C on day (Hs746T tumors; day 20): 65.6%
% Inhibition (Hs746T tumors; day 23): 49.7%
% T/C on day (Hs746T tumors; day 23): 50.3%
% Inhibition (Hs746T tumors; day 26): 57.2%
% T/C on day (Hs746T tumors; day 26): 42.8%
% Inhibition (Hs746T tumors; day 29): 59.1%
% T/C on day (Hs746T tumors; day 29): 40.9%
% Inhibition (Hs746T tumors; day 33): 49.8%
% T/C on day (Hs746T tumors; day 33): 50.2%
% Inhibition (Hs746T tumors; day 36): 31.4%
% T/C on day (Hs746T tumors; day 36): 68.6%
% Inhibition (MIA PaCa-2 tumors; day 13, erlotinib 50 PO): 0.9%
% Inhibition (MIA PaCa-2 tumors; [3]): 0.9%
% T/C on day (MIA PaCa-2 tumors; [3]): 99.1%
% Inhibition (MIA PaCa-2 tumors; day 15, erlotinib 50 PO): 12.9%
% Inhibition (MIA PaCa-2 tumors; [4]): 12.9%
% T/C on day (MIA PaCa-2 tumors; [4]): 87.1%
% Inhibition (MIA PaCa-2 tumors; day 19, erlotinib 50 PO): 22.8%
% Inhibition (MIA PaCa-2 tumors; [5]): 22.8%
% T/C on day (MIA PaCa-2 tumors; [5]): 77.2%
% Inhibition (MIA PaCa-2 tumors; day 22, erlotinib 50 PO): 39.2%
% Inhibition (MIA PaCa-2 tumors; [6]): 39.2%
% T/C on day (MIA PaCa-2 tumors; [6]): 60.8%
% Inhibition (MIA PaCa-2 tumors; day 27, erlotinib 50 PO): 30.8%
% Inhibition (MIA PaCa-2 tumors; [7]): 30.8%
% T/C on day (MIA PaCa-2 tumors; [7]): 69.2%
% Inhibition (MIA PaCa-2 tumors; day 29, erlotinib 50 PO): 40.0%
% Inhibition (MIA PaCa-2 tumors; [8]): 40.0%
% T/C on day (MIA PaCa-2 tumors; [8]): 60.0%
% Inhibition (MIA PaCa-2 tumors; day 33, erlotinib 50 PO): 36.1%
% Inhibition (MIA PaCa-2 tumors; [9]): 36.1%
% T/C on day (MIA PaCa-2 tumors; [9]): 63.9%
% Inhibition (MIA PaCa-2 tumors; day 36, erlotinib 50 PO): 43.4%
% Inhibition (MIA PaCa-2 tumors; [10]): 43.4%
% T/C on day (MIA PaCa-2 tumors; [10]): 56.6%
IC50 [1, 11]: 0.0069 µg/mL
IC50 ([2]; Homo sapiens, read-out: IC50): 0.0056 µg/mL

N.N.[Cl][Pt][Cl] [Cisplatin, cisplatin]
% Inhibition (Hs746T tumors; day 16): 3.2%
% T/C on day (Hs746T tumors; day 16): 96.8%
% Inhibition (Hs746T tumors; day 20): 39.5%
% T/C on day (Hs746T tumors; day 20): 60.5%
% Inhibition (Hs746T tumors; day 23): 48.3%
% T/C on day (Hs746T tumors; day 23): 51.7%
% Inhibition (Hs746T tumors; day 26): 55.8%
% T/C on day (Hs746T tumors; day 26): 44.2%
% Inhibition (Hs746T tumors; day 29): 56.7%
% T/C on day (Hs746T tumors; day 29): 43.3%
% Inhibition (Hs746T tumors; day 33): 53.3%
% T/C on day (Hs746T tumors; day 33): 46.7%
% Inhibition (Hs746T tumors; day 36): 53.7%
% T/C on day (Hs746T tumors; day 36): 46.3%
IC50 ([1]; 72 hours of drug exposure): 0.53 µg/mL
IC50 [2]: 2.4 µg/mL

C#Cc1cccc(Nc2ncnc3cc(OCCOC)c(OCCOC)cc23)c1 [erlotinib]
% Inhibition (MIA PaCa-2 tumors; day 13, erlotinib 50 PO): −1.5%
% T/C on day (MIA PaCa-2 tumors; day 13, erlotinib 50 PO): 101.5%
% Inhibition (MIA PaCa-2 tumors; [3]): −3.3%
% T/C on day (MIA PaCa-2 tumors; [3]): 103.3%
% Inhibition (MIA PaCa-2 tumors; day 15, erlotinib 50 PO): 3.3%
% T/C on day (MIA PaCa-2 tumors; day 15, erlotinib 50 PO): 96.7%
% Inhibition (MIA PaCa-2 tumors; [4]): −15.4%
% T/C on day (MIA PaCa-2 tumors; [4]): 115.4%
% Inhibition (MIA PaCa-2 tumors; day 19, erlotinib 50 PO): −13.2%
% T/C on day (MIA PaCa-2 tumors; day 19, erlotinib 50 PO): 113.2%
% Inhibition (MIA PaCa-2 tumors; [5]): −22.5%
% Inhibition (MIA PaCa-2 tumors; day 22, erlotinib 50 PO): −4.4%
% T/C on day (MIA PaCa-2 tumors; day 22, erlotinib 50 PO): 104.4%
% Inhibition (MIA PaCa-2 tumors; [6]): 3.6%
% T/C on day (MIA PaCa-2 tumors; [6]): 96.4%
% Inhibition (MIA PaCa-2 tumors; day 27, erlotinib 50 PO): −48.6%
% T/C on day (MIA PaCa-2 tumors; day 27, erlotinib 50 PO): 148.6%
% Inhibition (MIA PaCa-2 tumors; [7]): 4.0%
% T/C on day (MIA PaCa-2 tumors; [7]): 96.0%
% Inhibition (MIA PaCa-2 tumors; day 29, erlotinib 50 PO): −32.0%
% T/C on day (MIA PaCa-2 tumors; day 29, erlotinib 50 PO): 132.0%
% Inhibition (MIA PaCa-2 tumors; [8]): 3.7%
% T/C on day (MIA PaCa-2 tumors; [8]): 96.4%
% Inhibition (MIA PaCa-2 tumors; day 33, erlotinib 50 PO): −15.4%
% T/C on day (MIA PaCa-2 tumors; day 33, erlotinib 50 PO): 115.3%
% Inhibition (MIA PaCa-2 tumors; [9]): −2.7%
% T/C on day (MIA PaCa-2 tumors; [9]): 102.7%
% Inhibition (MIA PaCa-2 tumors; day 36, erlotinib 50 PO): −17.7%
% T/C on day (MIA PaCa-2 tumors; day 36, erlotinib 50 PO): 117.7%
% Inhibition (MIA PaCa-2 tumors; [10]): −6.0%
% T/C on day (MIA PaCa-2 tumors; [10]): 106.0%

Nc1ccn([C@@H]2O[C@H](CO)[C@@H](O)C2(F)F)c(=O)n1 [Gemcitabine, gemcitabine]
% Inhibition (MIA PaCa-2 tumors; [3]): 0.0%
% T/C on day (MIA PaCa-2 tumors; [3]): 100.0%
% Inhibition (MIA PaCa-2 tumors; [4]): −5.7%
% T/C on day (MIA PaCa-2 tumors; [4]): 105.7%
% Inhibition (MIA PaCa-2 tumors; [5]): 3.0%
% T/C on day (MIA PaCa-2 tumors; [5]): 97.0%
% Inhibition (MIA PaCa-2 tumors; [6]): 14.5%
% T/C on day (MIA PaCa-2 tumors; [6]): 85.5%
% T/C on day (MIA PaCa-2 tumors; [7]): 89.5%
% Inhibition (MIA PaCa-2 tumors; [8]): 13.7%
% T/C on day (MIA PaCa-2 tumors; [8]): 86.3%
% T/C on day (MIA PaCa-2 tumors; [9]): 87.7%
% Inhibition (MIA PaCa-2 tumors; [10]): −0.3%
% T/C on day (MIA PaCa-2 tumors; [10]): 100.3%
IC50 [1, 11]: 0.022 µg/mL
IC50 ([2]; Homo sapiens, read-out: IC50): 0.019 µg/mL
